Experimental findings from patent US10774051B2, “6-membered heterocyclic derivatives and pharmaceutical composition comprising the same” (Shionogi & Co., Ltd., priority 2015, dated 2020) are described below.

Broadly, the IC50 is the point on the concentration scale where inhibition reaches its midpoint.

Where two headings read alike, the source gives them in different places.

This assay has as its target human P2X7 receptor (Homo sapiens, UniProt Q99572, R270H/Y155H). As to the kind of experiment: Evaluation of human P2X7 receptor inhibitory activity (Yo-Pro uptake, BzATP stimulation, FLIPR TETRA). The assay is classed as cell-based. The gist of the method:
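Yo-Pro dye uptake triggered by BzATP was monitored by FLIPR in human P2X7-transfected 1321N1 cells (SNP variant) in HEPES-buffered HBSS, pH 7.4-7.5. Compound was dispensed 8 min post-stimulation, then signal read for 20 min; IC50 derived logistically from inhibition of the fluorescence range.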

[1] abbreviates: 1321N1 cells stably expressing human P2X7 receptor, BzATP stimulation, Yo-Pro uptake, read-out: IC50 (antagonistic activity for the human P2X7 receptor), class symbol.
Setting [2] is: antagonistic activity for the human P2X7 receptor, read-out: IC50.
Where [3] appears, read: 1321N1 cells stably expressing human P2X7 receptor, BzATP stimulation, Yo-Pro uptake, read-out: IC50 (antagonistic activity for the human P2X7 receptor).

Consider `COc1cn(Cc2cc(Cl)cc(Cl)c2)c(Nc2cccc(Cl)c2C)nc1=O` [Compound I-0317], for which, under setting [1], the IC50 lay within 0.1 to 0.5 µM.
Regarding `CCc1ccc(Br)cc1Nc1nc(=O)c(OC)cn1Cc1ccccc1` [Compound I-0621], under setting [2], the IC50 is less than 0.01 µM.
`Cc1cc2c(cc1Nc1nc(=O)c(F)cn1Cc1ccc(F)c(F)c1)COC2` [Compound I-1028]: the IC50 under setting [2] is less than 0.01 µM.
Still for that read-out and setting: the same measure for `COc1cn(Cc2ccccc2)c(Nc2ccc(OC(F)(F)F)cc2C)nc1=O` [Compound I-0628]: 0.1 to 0.5 µM; for `COc1cc(Nc2nc(=O)c(OC)cn2Cc2cc(F)c(F)c(F)c2)c(C)cc1C` [Compound I-0715]: less than 0.01 µM; for `Cc1ccc(OCC2CC2)cc1Nc1nc(=O)c(F)cn1Cc1cc(F)cc(F)c1` [Compound I-0997]: 0.01 to 0.1 µM.
For `COc1ccc(C)c(Nc2nc(=O)c(F)cn2Cc2ccc(F)c(F)c2)c1` [Compound I-1068], under setting [2], the IC50 is less than 0.01 µM.
On to `COc1cn(Cc2ccc(F)cc2)c(Nc2cc(C)ccc2C)nc1=O` [Compound I-0332], for which the IC50 under setting [1] was in the range of 0.01 to 0.1 µM.
As for `COc1ccc(Cl)c(Nc2nc(=O)c(OC)cn2Cc2cc(F)cc(F)c2)c1` [Compound I-0639], the IC50 under setting [2] lay within 0.01 to 0.1 µM.
On the same count and under the same terms, in the case of `CCOc1cc(Nc2nc(=O)c(OC)cn2Cc2ccccc2)c(C)cc1F` [Compound I-0918] it was 0.01 to 0.1 µM.
For the molecule `Cc1c(Cl)cccc1Nc1nc(=O)ccn1CCc1ccccc1` [Compound I-0055], the IC50 under setting [3] came out at 0.026 µM.
For the molecule `COc1cn(Cc2ccc(F)c(F)c2)c(Nc2cc(OC(F)(F)F)ccc2C)nc1=O` [Compound I-0693], the IC50 under setting [2] lay within 0.01 to 0.1 µM.
With `COc1cn(Cc2cc(C)cc(F)c2)c(Nc2cccc(Cl)c2C)nc1=O` [Compound I-0461], under setting [1], the IC50 was less than 0.01 µM.
With `CCOc1ccc(Nc2nc(=O)c(F)cn2Cc2ccc(F)c(Cl)c2)c(C)c1` [Compound I-1035], the IC50 under setting [2] was in the range of 0.01 to 0.1 µM.
Same read-out and setting: the same measure for `COc1cn(Cc2ccccc2)c(Nc2cc(Oc3ccccn3)ccc2C)nc1=O` [Compound I-0895]: 0.01 to 0.1 µM.
On to `COc1cn(Cc2ccc(F)c(Cl)c2)c(Nc2cc(CN3CCCC3)ccc2C)nc1=O` [Compound I-0524], for which the IC50 under setting [1] fell in the range of 0.1 to 0.5 µM.
As to `Cc1c(Nc2nc(=O)ccn2Cc2ccc(F)c(Cl)c2)ccc2[nH]ccc12` [Compound I-1170], the IC50 under setting [2] is less than 0.01 µM.
`COc1cn(Cc2cccc(C(F)(F)F)c2)c(Nc2cccc(Cl)c2C)nc1=O` [Compound I-0295]: the IC50 under setting [3] turned out to be 0.17 µM.
As to `COCc1ccc(C)c(Nc2nc(=O)c(F)cn2Cc2ccc(F)c(F)c2)c1` [Compound I-1084], the IC50 under setting [2] is less than 0.01 µM.
The same measure, in the same setting: the same measure for `COc1cn(Cc2ccc(F)c(F)c2)c(Nc2cc(OC(F)F)ccc2C)nc1=O` [Compound I-0873]: 0.01 to 0.1 µM; for `COc1cn(Cc2cc(F)cc(F)c2)c(Nc2cc(Cl)c(F)cc2C)nc1=O` [Compound I-0812]: 0.01 to 0.1 µM; for `COc1cccc(Nc2nc(=O)c(OC)cn2Cc2cccc(F)c2)c1C` [Compound I-0642]: less than 0.01 µM.
Consider `CCc1ccccc1Nc1nc(=O)c(Br)cn1Cc1ccccc1` [Compound I-0107], for which the IC50 under setting [1] lay in the range of 0.1 to 0.5 µM.
`COc1cn(Cc2ccc(F)c(Cl)c2)c(Nc2cc(OC3CC3)ccc2C)nc1=O` [Compound I-0889]: the IC50 under setting [2] was less than 0.01 µM.
The same measure, in the same setting: in the case of `Cc1cc2cc(Nc3nc(=O)c(F)cn3Cc3ccc(F)c(F)c3)c(C)cc2[nH]1` [Compound I-1056] it was 0.01 to 0.1 µM.
As for `CCOc1cc(C)c(Nc2nc(=O)c(OC)cn2Cc2cc(F)c(F)c(F)c2)cc1F` [Compound I-0868], under setting [2], the IC50 was in the range of 0.01 to 0.1 µM.
In the case of `COc1cn(Cc2cc(F)cc(Cl)c2)c(Nc2cccc(Cl)c2C)nc1=O` [Compound I-0285], the IC50 under setting [1] was 0.01 to 0.1 µM.
Consider `CCOC(=O)c1cn(Cc2cc(F)c(F)c(F)c2)c(Nc2ccc(OC(F)F)cc2C)nc1=O` [Compound I-1121], for which the IC50 under setting [2] fell in the range of 0.1 to 0.5 µM.
Still for that read-out and setting: in the case of `COc1cc(C)c(Nc2nc(=O)c(C)cn2Cc2cc(F)c(F)c(F)c2)cc1OC` [Compound I-1153] it was less than 0.01 µM.
Take `Cc1ccc(N2CCCS2(=O)=O)cc1Nc1nc(=O)c(Cl)cn1Cc1ccccc1` [Compound I-0313]: the IC50 under setting [1] fell in the range of 0.01 to 0.1 µM.
With `Cc1cc(C)c(Nc2nc(=O)c(F)cn2Cc2cc(F)c(F)c(F)c2)cc1C` [Compound I-1200], under setting [2], the IC50 is less than 0.01 µM.
Still for that read-out and setting: in the case of `COc1cc(Nc2nc(=O)c(OC)cn2Cc2cc(F)c(F)c(F)c2)c(C)cc1F` [Compound I-0863] it was less than 0.01 µM; in that of `COc1cn(Cc2cc(F)cc(F)c2)c(Nc2cc3nc(C)sc3cc2C)nc1=O` [Compound I-0745], 0.1 to 0.5 µM.
As for `Cc1cc2c(cc1Nc1nc(=O)c(F)cn1Cc1ccccc1)OCCO2` [Compound I-0366], the IC50 under setting [3] turned out to be 0.035 µM.
`CCc1ccc(Nc2nc(=O)c(F)cn2Cc2cc(F)cc(F)c2)c(C)c1` [Compound I-1228]: the IC50 under setting [2] is less than 0.01 µM.
In the case of `Cc1c(Cl)cccc1Nc1nc(=O)c(Br)cn1Cc1ccccc1` [Compound I-0027], the IC50 under setting [1] was in the range of 0.01 to 0.1 µM.
Take `COCc1cc(=O)nc(Nc2cc(OC)c(OC)cc2C)n1Cc1cc(F)cc(F)c1` [Compound I-1142]: the 50% inhibitory concentration (IC50) under setting [2] is 0.01 to 0.1 µM.
`Cc1c(Cl)cccc1Nc1nc(=O)c(C(=O)OC(C)(C)C)cn1Cc1ccccc1` [Compound I-0111]: the IC50 under setting [1] lay within 0.1 to 0.5 µM.
As to `COc1cn(Cc2ccc(F)c(Cl)c2)c(Nc2cc3c(cc2C)OCCC3=O)nc1=O` [Compound I-0930], the IC50 under setting [2] was 0.1 to 0.5 µM.
As for `CCc1c(Nc2nc(=O)c(F)cn2Cc2ccc(F)cc2)cc(OC)cc1OC` [Compound I-0314], under setting [1], the IC50 is less than 0.01 µM.
Take `COc1cc(Nc2nc(=O)c(F)cn2Cc2cc(F)c(F)c(F)c2)c(C)cc1F` [Compound I-1058]: under setting [2], the IC50 is less than 0.01 µM.
With `Cc1c(Cl)cccc1Nc1nc(=O)c(-c2ccccc2)cn1Cc1ccccc1` [Compound I-0028], the IC50 under setting [1] was in the range of 0.5 to 1 µM.
As for `COc1cn(Cc2cc(F)cc(Cl)c2)c(Nc2cc(S(C)(=O)=O)cc(C)c2C)nc1=O` [Compound I-0757], the IC50 under setting [2] was in the range of 0.01 to 0.1 µM.
On the same count and under the same terms, in the case of `COc1ccc(Nc2cc(=O)c(OC)cn2Cc2ccc(F)c(Cl)c2)c(C)c1` [Compound I-0944] it was 0.1 to 0.5 µM.
`COc1cn(Cc2ccccc2COC(F)F)c(Nc2cccc(Cl)c2C)nc1=O` [Compound I-0475]: under setting [1], the IC50 was less than 0.01 µM.
Turning to `COc1cc(C)c(Nc2nc(=O)c(OC)cn2Cc2cc(F)c(F)c(F)c2)cc1Cl` [Compound I-0763], under setting [2], the IC50 is less than 0.01 µM.
Consider `COc1cn(Cc2ccccc2)c(Nc2cc3[nH]ncc3cc2C)nc1=O` [Compound I-0221], for which the IC50 under setting [1] lay in the range of 0.01 to 0.1 µM.
The same measure, in the same setting: the same measure for `COc1cn(Cc2ccc(F)c(Cl)c2)c(Nc2cccc3[nH]c(C)cc23)nc1=O` [Compound I-0489]: less than 0.01 µM.
Take `Cc1cc(OC(F)F)c(C)cc1Nc1nc(=O)c(F)cn1Cc1cc(F)c(F)c(F)c1` [Compound I-1210]: under setting [2], the IC50 is less than 0.01 µM.
As to `Cc1nc2cc(Cl)c(Nc3nc(=O)c(F)cn3Cc3ccc(F)c(F)c3)cc2o1` [Compound I-1076], the IC50 under setting [2] is less than 0.01 µM.
For the molecule `COc1cn(Cc2cccc(Cl)c2)c(Nc2cc(-c3nnco3)ccc2C)nc1=O` [Compound I-0444], under setting [1], the IC50 lay in the range of 0.01 to 0.1 µM.
For `CCOc1cc(Nc2nc(=O)c(F)cn2Cc2ccc(F)c(Cl)c2)c(C)cc1F` [Compound I-1031], the IC50 under setting [2] is less than 0.01 µM.
On the same count and under the same terms, the same measure for `CCc1cc(Br)ccc1Nc1nc(=O)c(OC)cn1Cc1cc(F)cc(F)c1` [Compound I-0630]: less than 0.01 µM.
On the same count and under the same terms, in the case of `Cc1cc(C)c(Nc2nc(=O)c(F)cn2Cc2cc(F)c(F)c(F)c2)cc1F` [Compound I-1238] it was less than 0.01 µM.
